In publication PMC12662241, “New xanthone and chemical constituents from the aerial parts of Mallotus glomerulatus and their cytotoxicity in MCF-7 and MDA-MB-231 breast cancer cells” (ADMET & DMPK, 2025):
Where two headings read alike, the source gives them in different places.

Legend:
MDA-MB-231 cells [1] = settings: 50 µM
Protocol: (§1) MCF-7 cells were cultured in Dulbecco's Modified Eagle Medium/Nutrient Mixture F-12 (DMEM/F-12) (Gibco, New York, USA), which was supplemented with 10 % fetal bovine serum (FBS) (Gibco, New York, USA) and 1 % Penicillin-Streptomycin (P/S) (Gibco, New York, USA). MDA-MB-231 cells were cultured in DMEM high glucose (Gibco, New York, USA), supplemented with 10 % FBS and 1 % P/S.
(§2) MCF-7 cells were cultured in DMEM/F-12, while MDA-MB-231 cells were maintained in high-glucose DMEM. Both media were supplemented with 10 % foetal bovine serum (FBS) and 1 % penicillin/streptomycin (P/S). Cells were incubated for 24 h at 37 °C in a humidified atmosphere with 5 % CO2. […] Doxorubicin was used as a positive control. Following compound treatment, cells were incubated for 72 h under standard culture conditions. After treatment, the medium was replaced with serum-free medium containing 0.5 mg mL^-1 of 3-(4,5-dimethylthiazol-2-yl)-2,5-diphenyltetrazolium bromide (MTT), and cells were incubated for an additional 3 h. The MTT solution was then removed, and dimethyl sulfoxide (DMSO) was added to solubilize the formazan crystals. Absorbance was measured at 595 nm using a Microplate Spectrophotometer MR-850 BioPlate Reader (Biometrics Technologies, Wilmington, DE, USA). Compounds that reduced cell viability to ≤20 % compared to untreated controls were identified as hits for subsequent dose-response analysis. […] Treated cells were incubated for 72 h, followed by an MTT assay as described above. The absorbance at 595 nm was recorded, and IC50 values were determined using GraphPad Prism 9 (GraphPad Software, San Diego, CA, USA).

MCF-7 cells [2] = settings: 50 µM
Protocol: as §1, §2

MCF-7 cells [3] = test: Primary screening, MTT cell viability, MCF-7; settings: for viability at 50 µM: Homo sapiens, MCF7, 72 h, read-out: MCF-7 cell viability, %, 50 μM, 72 h, MTT; for inhibition of viability of MCF-7 cells: primary single-concentration screening
Protocol: as §1, §2

MDA-MB-231 cells [4] = test: Primary screening, MTT cell viability, MDA-MB-231; settings: for viability at 50 µM: Homo sapiens, MDA-MB-231, 72 h, read-out: MDA-MB-231 cell viability, %, 50 μM, 72 h, MTT
Protocol: as §1, §2

MDA-MB-231 cells [5] = test: Secondary screening (dose-response), MTT assay, MDA-MB-231; assay type: cell-based, human; settings: read-out: IC50 MDA-MB-231
Protocol: as §1, §2

in vitro = settings: human, HepG2 cells
Protocol: (§3) The human liver cells (HepG2 cells) were seeded into a 96-well plate at a cell density of 10^4 cells/well and were incubated with DMEM/F-12 with 10 % FBS and 1 % P/S for 24 hours in an incubator (37 °C and 5 % CO2). […] Then, they were additionally incubated for 72 hours. After 72 hours of incubation, the culture media containing the compounds were removed, and serum-free media containing MTT was added instead, with an additional 3 hours of incubation at 37 °C and 5 % CO2. After 3 hours of incubation, the MTT-containing media was removed and DMSO was added to the assay plates, resulting in different shades of purple colour measured by Microplate Spectrophotometer MR-850 BioPlate Reader. The calculation of CC50 was analysed by using GraphPad Prism 9.

MCF-7 cells [6] = test: Secondary screening (dose-response), MTT assay, MCF-7; assay type: cell-based, human; settings: read-out: IC50 MCF-7
Protocol: as §1, §2

HepG2 cells = settings: for SI (CC50/IC50) HepG2: MDA-MB-231: ratio of CC50 in HepG2 to IC50 in MDA-MB-231; for SI (CC50/IC50) HepG2: MCF-7: ratio of CC50 in HepG2 to IC50 in MCF-7
Protocol: as §3

Question: For 3,6-phenanthrenedione [Compound 5], which “MDA-MB-231 cell viability, %” value (MDA-MB-231 cells [1]) is on record?
Answer: 68.01 ± 3.88%

Question: And the “MCF-7 cell viability, %” value (MCF-7 cells [2])?
Answer: 75.58 ± 4.26%

Question: For C=C[C@@]1(C)C[C@H]2C[C@H](O)[C@]3(O)[C@@H](CCCC3(C)C)[C@]2(C)CC1=O [Compound 2, glomerulatusin], which viability at 50 µM (MCF-7 cells [3]; mean ± SEM) is on record?
Answer: 77.7 ± 4.87%

Question: And the viability at 50 µM (MDA-MB-231 cells [4]; mean ± SEM)?
Answer: 56.3 ± 2.17%

Question: What does the source list for C[C@H]1C(=O)CC[C@@H]2[C@]1(C)CC[C@H]1[C@@]2(C)CC[C@@]2(C)[C@@H]3CC(C)(C)CC[C@]3(C)CC[C@]12C [Compound 3, friedelin]?
Answer: viability at 50 µM (MCF-7 cells [3]; mean ± SEM): 79.2 ± 4.29%; viability at 50 µM (MDA-MB-231 cells [4]; mean ± SEM): 68.1 ± 2.96%

Question: With CC1(C)C(=O)C=C[C@]2(C)[C@@H]1CC[C@@]13C[C@@H](CC[C@H]12)C(O)(CO)C3 (stereo partly drawn) [Compound 4, anomaluone] as the molecule, how does the viability at 50 µM (MCF-7 cells [3]; mean ± SEM) read?
Answer: 72.7 ± 4.68%

Question: What about the viability at 50 µM (MDA-MB-231 cells [4]; mean ± SEM) of the same molecule?
Answer: 53.8 ± 1.88%

Question: For O=C1C[C@@H](c2ccccc2)Oc2cc(O)cc(O)c21 [Compound 6, pinocembrin], which viability at 50 µM (MCF-7 cells [3]; mean ± SEM) is on record?
Answer: 95.6 ± 2.96%

Question: What about the viability at 50 µM (MDA-MB-231 cells [4]; mean ± SEM) of the same molecule?
Answer: 74.4 ± 2.32%

Question: What does the source list for COc1cc(O)c2c(c1)O[C@H](c1ccccc1)CC2=O [Compound 7, pinostrobin]?
Answer: viability at 50 µM (MCF-7 cells [3]; mean ± SEM): 88.5 ± 4.12%; viability at 50 µM (MDA-MB-231 cells [4]; mean ± SEM): 61.6 ± 3.69%

Question: What does the source list for COc1cc(-c2cc(=O)c3c(O)c(OC)c(OC)cc3o2)cc(OC)c1OC [Compound 8, 5-hydroxy-6,7,3',4',5'-pentamethoxyflavone]?
Answer: viability at 50 µM (MCF-7 cells [3]; mean ± SEM): 63.1 ± 1.83%; viability at 50 µM (MDA-MB-231 cells [4]; mean ± SEM): 44.7 ± 1.93%

Question: With O=c1cc(-c2ccccc2)oc2cc(O)cc(O)c12 [Compound 9, chrysin] as the molecule, how does the viability at 50 µM (MCF-7 cells [3]; mean ± SEM) read?
Answer: 76.7 ± 3.4%

Question: And the viability at 50 µM (MDA-MB-231 cells [4]; mean ± SEM)?
Answer: 64.5 ± 1.19%

Question: With COc1cc2c(O[C@@H]3OC[C@@H](OC)[C@H](OC)[C@H]3O)c3c(c(-c4ccc5c(c4)OCO5)c2cc1OC)C(=O)OC3 [Compound 10, cleistanthin A] as the molecule, how does the IC50 (MDA-MB-231 cells [5]; Homo sapiens, MDA-MB-231, 72 h) read?
Answer: 20 nM

Question: And the viability at 50 µM (MCF-7 cells [3]; mean ± SEM)?
Answer: 1.72 ± 0.23%

Question: And the “inhibition of viability of MCF-7 cells” value (MCF-7 cells [3]; 50 μM, 72 h)?
Answer: more than 80%

Question: What about the viability at 50 µM (MDA-MB-231 cells [4]; mean ± SEM) of the same molecule?
Answer: 8.85 ± 0.73%

Question: What about the “inhibition of viability of MDA-MB-231 cells” value (MDA-MB-231 cells [4]; primary single-concentration screening, 50 μM, 72 h) of the same molecule?
Answer: more than 80%

Question: What about the CC50 at 72 h (in vitro) of the same molecule?
Answer: 5370 nM

Question: What about the IC50 (MCF-7 cells [6]; Homo sapiens, MCF7, 72 h) of the same molecule?
Answer: 540 nM

Question: And the “SI (CC50/IC50) HepG2: MDA-MB-231” value (HepG2 cells)?
Answer: 268.50

Question: And the “SI (CC50/IC50) HepG2: MDA-MB-231” value (HepG2 cells; listed as cleistanthin A)?
Answer: > 100

Question: With CC(=O)c1ccc(O)cc1 [Compound 11, 4-hydroxyacetophenone] as the molecule, how does the viability at 50 µM (MCF-7 cells [3]; mean ± SEM) read?
Answer: 85.2 ± 4.2%

Question: What about the viability at 50 µM (MDA-MB-231 cells [4]; mean ± SEM) of the same molecule?
Answer: 50.2 ± 2.73%

Question: For COc1cccc2c1C(=O)c1c(O)c3c(c(O)c1C2=O)C[C@@](O)(C(=O)CO)C[C@@H]3O[C@H]1C[C@H](N)[C@H](O)[C@H](C)O1 [Doxorubicin, reference compound], which IC50 (MDA-MB-231 cells [5]; Homo sapiens, MDA-MB-231, 72 h, MTT, mean ± SD) is on record?
Answer: 980 nM

Question: What about the viability at 50 µM (MCF-7 cells [3]; mean ± SEM) of the same molecule?
Answer: 4.02 ± 0.24%

Question: And the viability at 50 µM (MDA-MB-231 cells [4]; mean ± SEM)?
Answer: 4.72 ± 1.07%

Question: And the CC50 at 72 h (in vitro)?
Answer: 550 nM

Question: And the IC50 (MCF-7 cells [6]; Homo sapiens, MCF7, 72 h, MTT, mean ± SD)?
Answer: 660 nM

Question: And the “SI (CC50/IC50) HepG2: MCF-7” value (HepG2 cells; listed as DoxorubICin)?
Answer: 0.83

Question: And the “SI (CC50/IC50) HepG2: MCF-7” value (HepG2 cells; listed as doxorubicin)?
Answer: below 1

Question: And the “SI (CC50/IC50) HepG2: MDA-MB-231” value (HepG2 cells; listed as DoxorubICin)?
Answer: 0.56

Question: And the “SI (CC50/IC50) HepG2: MDA-MB-231” value (HepG2 cells; listed as doxorubicin)?
Answer: below 1

Question: With “(3,4,5)-trihydroxy-6-methoxy-2,7-bis(3-methylbut-2-en-1-yl)-9H-xanthen-9-one [Compound 1]” as the molecule, how does the IC50 (MDA-MB-231 cells [5]; 72 h, MTT, mean ± SD) read?
Answer: 34200 nM

Question: And the “MCF-7 cell viability, %” value (MCF-7 cells [3]; 50 μM, 72 h, MTT, mean ± SEM)?
Answer: 1.60 ± 0.10%

Question: What about the “inhibition of viability of MCF-7 cells” value (MCF-7 cells [3]; 50 μM, 72 h) of the same molecule?
Answer: more than 80%

Question: What about the “MDA-MB-231 cell viability, %” value (MDA-MB-231 cells [4]; 50 μM, 72 h, MTT, mean ± SEM) of the same molecule?
Answer: 59.00 ± 3.33%

Question: And the IC50 (MCF-7 cells [6]; 72 h, MTT, mean ± SD)?
Answer: 28300 nM

Question: And the CC50 (HepG2 cells; read-out: CC50 HepG2, 72 h, MTT)?
Answer: 32800 nM
